Here are results for seven molecules from ChEMBL document CHEMBL5291721, “A preclinical secondary pharmacology resource illuminates target-adverse drug reaction associations of marketed drugs” (Nat Commun, 2023).

The structures appear in SMILES notation.

In assay [1] the target is T1, Gastric inhibitory polypeptide receptor (Homo sapiens, UniProt P48546).
T1 sequence (P48546 whole entry): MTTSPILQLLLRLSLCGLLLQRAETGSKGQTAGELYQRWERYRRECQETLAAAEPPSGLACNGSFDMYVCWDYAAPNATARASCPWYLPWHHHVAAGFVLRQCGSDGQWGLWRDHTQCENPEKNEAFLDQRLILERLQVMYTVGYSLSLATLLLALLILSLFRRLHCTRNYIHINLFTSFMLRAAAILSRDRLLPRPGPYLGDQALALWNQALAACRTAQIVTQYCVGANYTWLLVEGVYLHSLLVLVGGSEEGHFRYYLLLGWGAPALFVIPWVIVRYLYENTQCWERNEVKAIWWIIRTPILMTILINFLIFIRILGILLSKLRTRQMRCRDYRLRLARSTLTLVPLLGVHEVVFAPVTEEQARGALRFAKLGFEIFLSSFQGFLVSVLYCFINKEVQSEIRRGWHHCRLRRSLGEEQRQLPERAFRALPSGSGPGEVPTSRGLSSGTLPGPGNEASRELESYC

The target of assay [2] is T2, Histamine H1 receptor (Homo sapiens, UniProt P35367). It is filed as functional, cell-based.
T2 sequence (P35367 whole entry): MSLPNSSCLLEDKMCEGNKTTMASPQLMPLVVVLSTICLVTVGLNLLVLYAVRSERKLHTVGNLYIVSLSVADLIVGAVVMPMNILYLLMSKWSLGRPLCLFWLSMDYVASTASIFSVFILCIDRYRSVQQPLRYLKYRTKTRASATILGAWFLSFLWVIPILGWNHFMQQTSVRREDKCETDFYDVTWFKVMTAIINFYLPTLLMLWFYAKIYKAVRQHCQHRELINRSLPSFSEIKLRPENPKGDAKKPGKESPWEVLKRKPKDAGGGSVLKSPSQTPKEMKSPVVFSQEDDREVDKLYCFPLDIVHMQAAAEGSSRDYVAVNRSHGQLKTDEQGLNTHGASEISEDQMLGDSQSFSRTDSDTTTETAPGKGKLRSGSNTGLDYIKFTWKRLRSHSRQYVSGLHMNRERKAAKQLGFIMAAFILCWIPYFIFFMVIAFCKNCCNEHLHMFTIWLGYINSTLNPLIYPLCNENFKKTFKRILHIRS
For a further assay, the target named is T3, D(4) dopamine receptor (Homo sapiens, UniProt P21917).
T3 sequence (P21917 whole entry): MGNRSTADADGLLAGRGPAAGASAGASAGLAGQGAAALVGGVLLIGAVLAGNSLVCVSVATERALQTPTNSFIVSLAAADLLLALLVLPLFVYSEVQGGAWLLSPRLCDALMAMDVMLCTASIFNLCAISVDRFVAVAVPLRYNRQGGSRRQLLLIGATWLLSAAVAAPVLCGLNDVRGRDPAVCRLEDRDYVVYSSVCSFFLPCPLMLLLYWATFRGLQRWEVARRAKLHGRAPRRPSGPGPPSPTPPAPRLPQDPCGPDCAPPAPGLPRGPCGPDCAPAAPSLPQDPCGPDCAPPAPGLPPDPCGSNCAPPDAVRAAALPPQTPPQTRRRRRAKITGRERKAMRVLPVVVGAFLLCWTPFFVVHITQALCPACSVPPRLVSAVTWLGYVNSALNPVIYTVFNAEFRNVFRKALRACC

For assay [3], the target named is 5-hydroxytryptamine receptor 7 (Homo sapiens, UniProt P34969).
The target in a further assay is Substance-P receptor (Homo sapiens, UniProt P25103).
The target of assay [4] is T4, Corticotropin-releasing factor receptor 2 (Homo sapiens, UniProt Q13324).
T4 sequence (Q13324 whole entry): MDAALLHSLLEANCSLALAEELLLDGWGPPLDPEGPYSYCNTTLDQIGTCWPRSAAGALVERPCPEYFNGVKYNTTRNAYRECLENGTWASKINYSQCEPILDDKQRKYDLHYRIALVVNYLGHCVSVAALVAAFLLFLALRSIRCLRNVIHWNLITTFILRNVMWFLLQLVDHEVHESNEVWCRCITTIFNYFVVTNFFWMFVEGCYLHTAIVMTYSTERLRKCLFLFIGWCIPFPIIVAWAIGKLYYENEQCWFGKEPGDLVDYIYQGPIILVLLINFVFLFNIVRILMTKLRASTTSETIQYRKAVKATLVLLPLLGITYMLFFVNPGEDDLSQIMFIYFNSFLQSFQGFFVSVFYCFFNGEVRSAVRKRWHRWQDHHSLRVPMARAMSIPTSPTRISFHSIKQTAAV

Assay [5] has as its target Voltage-dependent N-type calcium channel subunit alpha-1B (Rattus norvegicus, UniProt Q02294). The assay is classed as functional.
For the next assay, the target named is Glucagon receptor (Homo sapiens, UniProt P47871).
Assay [6] has as its target T2, Histamine H1 receptor. The assay is classed as functional, cell-based. This is another data set of the same source.
The target in another assay is Cannabinoid receptor 1 (Homo sapiens, UniProt P21554). It is filed as functional.
Assay [7] concerns the target 5-hydroxytryptamine receptor 6 (Homo sapiens, UniProt P50406).
Assay [8] deals with Gamma-aminobutyric acid receptor subunit alpha-1/alpha-2/beta-2/gamma-2 (Homo sapiens, UniProt P14867+P18507+P47869+P47870). The assay is classed as functional, cell-based.
Sequence of Gamma-aminobutyric acid receptor subunit alpha-1/alpha-2/beta-2/gamma-2 (P14867 whole entry): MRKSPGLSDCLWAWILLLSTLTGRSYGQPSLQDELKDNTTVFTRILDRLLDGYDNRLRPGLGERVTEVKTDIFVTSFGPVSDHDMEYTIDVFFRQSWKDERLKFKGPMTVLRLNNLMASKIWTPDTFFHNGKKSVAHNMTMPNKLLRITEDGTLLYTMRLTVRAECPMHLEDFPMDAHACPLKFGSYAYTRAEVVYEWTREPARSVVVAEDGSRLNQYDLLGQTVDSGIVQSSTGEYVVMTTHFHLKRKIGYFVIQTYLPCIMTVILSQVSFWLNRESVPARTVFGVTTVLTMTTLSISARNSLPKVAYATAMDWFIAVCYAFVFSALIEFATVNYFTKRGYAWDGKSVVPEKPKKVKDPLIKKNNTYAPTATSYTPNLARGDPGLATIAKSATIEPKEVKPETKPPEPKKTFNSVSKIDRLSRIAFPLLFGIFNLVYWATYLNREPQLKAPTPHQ
Sequence of Gamma-aminobutyric acid receptor subunit alpha-1/alpha-2/beta-2/gamma-2 (P47870 whole entry): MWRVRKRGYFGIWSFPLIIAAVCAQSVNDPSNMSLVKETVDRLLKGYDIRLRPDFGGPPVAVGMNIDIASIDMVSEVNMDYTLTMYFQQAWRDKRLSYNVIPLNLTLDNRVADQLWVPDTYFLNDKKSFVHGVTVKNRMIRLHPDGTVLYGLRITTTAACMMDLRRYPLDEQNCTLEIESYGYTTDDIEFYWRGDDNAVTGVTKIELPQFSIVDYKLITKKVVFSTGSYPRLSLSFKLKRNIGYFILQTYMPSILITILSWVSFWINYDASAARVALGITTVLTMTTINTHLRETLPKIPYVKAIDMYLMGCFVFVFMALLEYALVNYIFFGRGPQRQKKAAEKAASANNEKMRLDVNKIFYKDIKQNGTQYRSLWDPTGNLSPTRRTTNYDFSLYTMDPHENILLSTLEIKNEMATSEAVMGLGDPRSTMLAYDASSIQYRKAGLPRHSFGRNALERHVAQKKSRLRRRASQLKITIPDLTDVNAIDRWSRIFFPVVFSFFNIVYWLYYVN
Sequence of Gamma-aminobutyric acid receptor subunit alpha-1/alpha-2/beta-2/gamma-2 (P18507 whole entry): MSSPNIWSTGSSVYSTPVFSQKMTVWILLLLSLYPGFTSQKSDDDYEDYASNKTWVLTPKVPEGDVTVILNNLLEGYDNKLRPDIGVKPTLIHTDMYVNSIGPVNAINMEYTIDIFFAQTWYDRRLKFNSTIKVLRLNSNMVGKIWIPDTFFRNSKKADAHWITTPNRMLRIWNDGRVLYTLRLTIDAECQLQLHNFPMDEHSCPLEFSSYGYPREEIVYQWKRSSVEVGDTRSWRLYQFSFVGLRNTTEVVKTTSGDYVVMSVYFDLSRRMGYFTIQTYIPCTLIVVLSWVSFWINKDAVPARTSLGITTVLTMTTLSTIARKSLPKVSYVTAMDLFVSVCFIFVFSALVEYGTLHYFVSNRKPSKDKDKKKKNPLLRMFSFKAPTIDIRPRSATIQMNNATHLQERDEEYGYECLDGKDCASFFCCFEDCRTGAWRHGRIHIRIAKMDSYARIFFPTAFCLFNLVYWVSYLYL
Sequence of Gamma-aminobutyric acid receptor subunit alpha-1/alpha-2/beta-2/gamma-2 (P47869 whole entry): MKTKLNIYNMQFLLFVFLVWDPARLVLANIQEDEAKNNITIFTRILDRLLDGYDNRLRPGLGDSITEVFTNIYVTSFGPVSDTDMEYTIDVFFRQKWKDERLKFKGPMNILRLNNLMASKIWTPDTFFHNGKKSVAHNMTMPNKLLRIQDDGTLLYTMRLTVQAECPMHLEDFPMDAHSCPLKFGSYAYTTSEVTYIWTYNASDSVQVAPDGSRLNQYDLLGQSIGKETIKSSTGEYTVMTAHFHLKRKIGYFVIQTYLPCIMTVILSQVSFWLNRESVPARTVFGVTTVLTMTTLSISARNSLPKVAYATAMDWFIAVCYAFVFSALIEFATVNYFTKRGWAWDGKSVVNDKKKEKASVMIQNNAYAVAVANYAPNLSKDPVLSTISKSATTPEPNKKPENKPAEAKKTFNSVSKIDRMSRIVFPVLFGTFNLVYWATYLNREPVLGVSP
Note: assay procedure not described here.

Sequence of Voltage-dependent N-type calcium channel subunit alpha-1B (Q02294 whole entry): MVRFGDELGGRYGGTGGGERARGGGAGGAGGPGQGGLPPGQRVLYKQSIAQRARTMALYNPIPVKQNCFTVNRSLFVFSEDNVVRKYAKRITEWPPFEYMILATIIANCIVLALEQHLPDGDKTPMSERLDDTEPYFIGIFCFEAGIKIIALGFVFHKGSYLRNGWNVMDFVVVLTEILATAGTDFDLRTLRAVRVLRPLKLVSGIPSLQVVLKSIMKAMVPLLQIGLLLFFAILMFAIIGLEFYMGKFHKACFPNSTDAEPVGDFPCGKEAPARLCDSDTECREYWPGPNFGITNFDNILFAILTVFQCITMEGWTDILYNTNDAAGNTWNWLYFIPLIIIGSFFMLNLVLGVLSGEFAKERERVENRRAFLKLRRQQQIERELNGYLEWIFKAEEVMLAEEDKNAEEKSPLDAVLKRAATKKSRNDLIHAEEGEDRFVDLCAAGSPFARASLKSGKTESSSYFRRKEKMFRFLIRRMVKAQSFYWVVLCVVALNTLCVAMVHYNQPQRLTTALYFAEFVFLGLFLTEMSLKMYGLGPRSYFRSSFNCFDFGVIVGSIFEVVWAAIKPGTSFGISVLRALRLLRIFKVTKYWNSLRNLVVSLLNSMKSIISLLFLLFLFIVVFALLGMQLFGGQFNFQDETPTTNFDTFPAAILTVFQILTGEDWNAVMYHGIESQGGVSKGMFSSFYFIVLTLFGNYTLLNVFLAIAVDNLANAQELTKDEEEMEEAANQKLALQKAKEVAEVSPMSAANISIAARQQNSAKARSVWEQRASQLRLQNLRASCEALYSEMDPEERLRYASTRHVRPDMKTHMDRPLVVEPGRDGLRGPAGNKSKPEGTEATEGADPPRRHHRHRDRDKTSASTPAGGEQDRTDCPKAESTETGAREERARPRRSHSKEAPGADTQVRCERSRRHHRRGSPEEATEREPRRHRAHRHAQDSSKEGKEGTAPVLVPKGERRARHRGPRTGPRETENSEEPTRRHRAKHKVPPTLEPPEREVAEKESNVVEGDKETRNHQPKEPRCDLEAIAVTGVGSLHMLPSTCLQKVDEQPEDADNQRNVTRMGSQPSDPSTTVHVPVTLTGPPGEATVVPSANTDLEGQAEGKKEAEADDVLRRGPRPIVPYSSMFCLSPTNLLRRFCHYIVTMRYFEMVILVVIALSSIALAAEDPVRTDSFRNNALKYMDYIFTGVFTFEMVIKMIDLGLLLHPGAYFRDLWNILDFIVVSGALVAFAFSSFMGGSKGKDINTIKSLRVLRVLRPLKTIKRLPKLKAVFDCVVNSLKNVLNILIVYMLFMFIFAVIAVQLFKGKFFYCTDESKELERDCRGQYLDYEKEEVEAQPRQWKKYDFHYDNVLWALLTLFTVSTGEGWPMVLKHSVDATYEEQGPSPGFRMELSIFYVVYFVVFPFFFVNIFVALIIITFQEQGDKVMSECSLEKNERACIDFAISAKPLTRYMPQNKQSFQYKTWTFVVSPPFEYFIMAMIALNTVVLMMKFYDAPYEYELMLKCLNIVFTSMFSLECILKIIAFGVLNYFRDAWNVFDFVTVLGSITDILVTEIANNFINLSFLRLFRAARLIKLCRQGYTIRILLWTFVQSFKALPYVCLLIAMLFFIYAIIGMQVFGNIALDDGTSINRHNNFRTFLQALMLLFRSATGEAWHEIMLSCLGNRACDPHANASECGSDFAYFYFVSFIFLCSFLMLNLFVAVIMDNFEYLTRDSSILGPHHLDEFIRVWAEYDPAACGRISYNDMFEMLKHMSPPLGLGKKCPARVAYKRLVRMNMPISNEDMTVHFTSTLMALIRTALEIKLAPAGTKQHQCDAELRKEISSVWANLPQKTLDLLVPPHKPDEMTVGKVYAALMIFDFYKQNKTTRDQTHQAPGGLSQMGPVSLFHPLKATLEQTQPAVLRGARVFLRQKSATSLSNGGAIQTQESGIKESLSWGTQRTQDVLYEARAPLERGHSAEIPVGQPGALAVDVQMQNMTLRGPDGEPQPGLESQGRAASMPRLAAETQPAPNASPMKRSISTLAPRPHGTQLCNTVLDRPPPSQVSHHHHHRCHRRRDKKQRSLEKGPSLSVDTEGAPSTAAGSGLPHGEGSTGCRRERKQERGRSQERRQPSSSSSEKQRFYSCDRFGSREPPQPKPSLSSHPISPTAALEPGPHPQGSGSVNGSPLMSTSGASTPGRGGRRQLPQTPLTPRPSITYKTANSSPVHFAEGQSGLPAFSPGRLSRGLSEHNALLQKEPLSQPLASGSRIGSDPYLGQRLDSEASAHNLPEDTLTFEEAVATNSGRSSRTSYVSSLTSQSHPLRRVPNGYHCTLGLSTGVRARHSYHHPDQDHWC

Consider `CCCCc1ncc(/C=C(\Cc2cccs2)C(=O)O)n1Cc1ccc(C(=O)O)cc1` [EPROSARTAN], for which the AC50 was greater than 30 µM in assay [1]; greater than 30 µM on Histamine H1 receptor [2]; greater than 10 µM on D(4) dopamine receptor; greater than 10 µM in [3]; greater than 10 µM on Substance-P receptor; greater than 30 µM in [4]. The AC50 was greater than 10 µM in assay [5]; greater than 30 µM on Glucagon receptor; greater than 30 µM on Histamine H1 receptor [6]; greater than 10 µM on Cannabinoid receptor 1; greater than 10 µM in assay [7].

As for `CC(C)OC(=O)CCC/C=C\C[C@@H]1[C@@H](CC[C@@H](O)CCc2ccccc2)[C@H](O)C[C@@H]1O` [LATANOPROST], the AC50 (on Histamine H1 receptor [2]; in assay [8]; at Histamine H1 receptor [6]) was greater than 30 µM in each case.

As to `CCC1(CC)C(=O)NCC(C)C1=O` (centres undefined) [METHYPRYLON], the half-maximal activity concentration (AC50) (at Histamine H1 receptor [2]; in assay [8]; at Histamine H1 receptor [6]) was greater than 30 µM in each case.

As to `CC[C@@H]1C(=O)OC[C@@H]1Cc1cncn1C` [PILOCARPINE], the AC50 at Histamine H1 receptor [2] was greater than 30 µM; in assay [5] it was greater than 10 µM; at Histamine H1 receptor [6] it was greater than 30 µM.

On to `CN1CCC(=C2c3ccccc3CCc3sccc32)CC1` [PIZOTYLINE], for which the AC50 at Histamine H1 receptor [2] was 0.0681 µM; in assay [8] it was greater than 30 µM; at Histamine H1 receptor [6], greater than 30 µM.

On to `CCN(CC)C(=O)N[C@H]1C[C@@H]2c3cccc4[nH]cc(c34)C[C@H]2N(C)C1` [TERGURIDE], for which the AC50 on Histamine H1 receptor [2] is 7.49 µM; in assay [8], greater than 30 µM; at Histamine H1 receptor [6] it was greater than 30 µM.

For `O=C(NCCNCC(O)COc1ccc(O)cc1)N1CCOCC1` (centres undefined) [XAMOTEROL], the AC50 (on Histamine H1 receptor [2]; in assay [8]; on Histamine H1 receptor [6]) was greater than 30 µM each time.

For orientation: AC50 means the concentration at which the activity in the assay is half-maximal.
